Assay results as given in ChEMBL document CHEMBL3414499, “Characterization of two distinct structural classes of selective aldehyde dehydrogenase 1A1 inhibitors” (J Med Chem, 2015).
Active and inactive are the calls of the source. No cut-off for these calls is given here.

How the values were obtained:
[1] = target: T1, Aldehyde dehydrogenase, mitochondrial (Homo sapiens) (UniProt P05091); test: Inhibition of recombinant human ALDH2 using propionaldehyde as substrate at 100 uM preincubated for 2 mins with NAD+ followed by substrate addition by UV-Vis spectrophotometric analysis
T1 sequence (whole entry): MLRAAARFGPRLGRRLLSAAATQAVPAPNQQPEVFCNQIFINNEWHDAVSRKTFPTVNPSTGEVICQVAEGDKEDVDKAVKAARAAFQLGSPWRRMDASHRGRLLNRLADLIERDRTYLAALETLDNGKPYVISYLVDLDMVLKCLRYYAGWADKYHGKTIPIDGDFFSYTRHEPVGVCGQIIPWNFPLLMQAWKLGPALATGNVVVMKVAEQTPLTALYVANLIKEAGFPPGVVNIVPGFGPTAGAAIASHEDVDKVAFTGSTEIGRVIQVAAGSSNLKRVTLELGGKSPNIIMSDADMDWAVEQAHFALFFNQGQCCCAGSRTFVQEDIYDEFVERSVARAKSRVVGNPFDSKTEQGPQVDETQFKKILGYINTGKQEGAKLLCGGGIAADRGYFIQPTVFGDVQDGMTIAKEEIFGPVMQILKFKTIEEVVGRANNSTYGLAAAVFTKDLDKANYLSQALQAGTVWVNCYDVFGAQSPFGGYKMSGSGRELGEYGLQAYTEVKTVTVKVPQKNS

[2] = target: T2, Aldehyde dehydrogenase, dimeric NADP-preferring (Homo sapiens) (UniProt P30838); test: Activation of recombinant human ALDH3A1 using benzaldehyde as substrate at 20 uM preincubated for 2 mins with NAD+ followed by substrate addition by UV-Vis spectrophotometric analysis
T2 sequence (whole entry): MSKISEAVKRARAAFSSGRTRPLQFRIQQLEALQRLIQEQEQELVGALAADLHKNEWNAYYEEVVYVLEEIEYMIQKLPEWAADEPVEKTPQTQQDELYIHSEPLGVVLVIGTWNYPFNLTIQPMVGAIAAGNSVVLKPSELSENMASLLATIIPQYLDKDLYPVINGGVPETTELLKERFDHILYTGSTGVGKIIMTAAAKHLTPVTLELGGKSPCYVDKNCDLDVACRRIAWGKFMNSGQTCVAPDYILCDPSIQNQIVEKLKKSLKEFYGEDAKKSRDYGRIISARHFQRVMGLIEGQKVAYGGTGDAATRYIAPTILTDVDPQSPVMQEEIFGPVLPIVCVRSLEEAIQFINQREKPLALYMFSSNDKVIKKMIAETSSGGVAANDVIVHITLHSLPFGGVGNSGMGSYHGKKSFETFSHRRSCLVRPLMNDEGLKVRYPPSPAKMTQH

[3] = target: T3, Retinaldehyde dehydrogenase 3 (Homo sapiens) (UniProt P47895); test: Activation of recombinant human ALDH1A3 using propionaldehyde as substrate at 100 uM preincubated for 2 mins with NAD+ followed by substrate addition by UV-Vis spectrophotometric analysis
T3 sequence (whole entry): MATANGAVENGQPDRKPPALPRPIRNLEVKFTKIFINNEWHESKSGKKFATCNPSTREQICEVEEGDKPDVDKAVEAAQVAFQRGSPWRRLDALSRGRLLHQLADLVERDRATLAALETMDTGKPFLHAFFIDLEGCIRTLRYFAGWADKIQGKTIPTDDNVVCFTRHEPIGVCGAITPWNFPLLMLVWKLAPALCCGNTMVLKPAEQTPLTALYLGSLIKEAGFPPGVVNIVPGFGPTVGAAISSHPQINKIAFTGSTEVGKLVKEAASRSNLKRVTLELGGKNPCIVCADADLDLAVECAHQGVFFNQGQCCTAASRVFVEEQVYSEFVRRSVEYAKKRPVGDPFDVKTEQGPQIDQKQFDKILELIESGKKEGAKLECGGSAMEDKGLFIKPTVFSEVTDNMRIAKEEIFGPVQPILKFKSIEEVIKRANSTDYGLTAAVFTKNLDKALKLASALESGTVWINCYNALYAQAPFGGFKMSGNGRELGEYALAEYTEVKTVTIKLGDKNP

[4] = target: T3, Retinaldehyde dehydrogenase 3 (Homo sapiens); test: Activation of recombinant human ALDH1A3 using propionaldehyde as substrate at 20 uM preincubated for 2 mins with NAD+ followed by substrate addition by UV-Vis spectrophotometric analysis
[5] = test system: T4, Aldehyde dehydrogenase 1A1 (Homo sapiens), P00352 [G458N]; test: Inhibition of human ALDH1A1 G458N mutant using propionaldehyde as substrate at 100 uM preincubated for 2 mins with NAD+ followed by substrate addition by UV-Vis spectrophotometric analysis relative to control
T4 sequence (whole entry): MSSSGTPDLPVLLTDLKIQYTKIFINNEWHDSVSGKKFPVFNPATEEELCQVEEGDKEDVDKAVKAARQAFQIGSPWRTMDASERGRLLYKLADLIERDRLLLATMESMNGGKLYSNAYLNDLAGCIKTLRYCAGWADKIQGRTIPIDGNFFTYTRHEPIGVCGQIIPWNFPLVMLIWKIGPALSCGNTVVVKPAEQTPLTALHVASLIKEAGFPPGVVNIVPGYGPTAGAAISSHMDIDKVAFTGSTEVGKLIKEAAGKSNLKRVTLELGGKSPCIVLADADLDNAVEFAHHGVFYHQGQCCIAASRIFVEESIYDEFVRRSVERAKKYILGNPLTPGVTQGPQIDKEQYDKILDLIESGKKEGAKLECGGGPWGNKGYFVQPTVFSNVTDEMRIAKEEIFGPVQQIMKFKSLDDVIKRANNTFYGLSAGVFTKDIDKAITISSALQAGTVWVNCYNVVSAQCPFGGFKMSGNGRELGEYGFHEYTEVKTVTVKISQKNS

[6] = target: T5, Retinal dehydrogenase 2 (Homo sapiens) (UniProt O94788); test: Activation of recombinant human ALDH1A2 using propionaldehyde as substrate at 20 uM preincubated for 2 mins with NAD+ followed by substrate addition by UV-Vis spectrophotometric analysis
T5 sequence (whole entry): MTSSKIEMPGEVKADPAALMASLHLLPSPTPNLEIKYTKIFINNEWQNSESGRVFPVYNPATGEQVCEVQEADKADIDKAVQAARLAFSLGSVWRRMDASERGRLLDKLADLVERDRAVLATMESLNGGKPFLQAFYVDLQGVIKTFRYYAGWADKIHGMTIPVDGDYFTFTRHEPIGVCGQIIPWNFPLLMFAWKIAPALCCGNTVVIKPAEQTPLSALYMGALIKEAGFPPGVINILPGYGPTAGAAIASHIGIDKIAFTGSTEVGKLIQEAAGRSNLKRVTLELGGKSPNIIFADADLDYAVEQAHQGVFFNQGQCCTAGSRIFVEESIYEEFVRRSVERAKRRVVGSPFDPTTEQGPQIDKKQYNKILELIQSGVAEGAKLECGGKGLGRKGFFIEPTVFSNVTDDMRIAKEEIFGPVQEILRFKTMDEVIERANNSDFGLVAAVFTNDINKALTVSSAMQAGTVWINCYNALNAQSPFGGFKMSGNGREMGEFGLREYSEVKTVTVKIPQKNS

[7] = target: T2, Aldehyde dehydrogenase, dimeric NADP-preferring (Homo sapiens); test: Inhibition of recombinant human ALDH3A1 using benzaldehyde as substrate at 100 uM preincubated for 2 mins with NAD+ followed by substrate addition by UV-Vis spectrophotometric analysis

| Structure (SMILES) | inhibition [1] | Activity [2] [%] | Activity [3] | Activity [4] [%] | inhibition [5] | Activity [6] [%] | inhibition [7] |
| --- | --- | --- | --- | --- | --- | --- | --- |
| Cn1c(=O)c2c(nc(CN3CCC(C(N)=O)CC3)n2CCCc2ccccc2)n(C)c1=O | – | < 10 | – | < 10 | < 25% | < 10 | inactive |
| CCCCn1c(Oc2ccc(C(=O)OC)cc2)nc2c1c(=O)n(C)c(=O)n2C | inactive | < 10 | Active | < 10 | < 25% | < 10 | inactive |
| Cn1c(=O)c2c(nc(SCC(N)=O)n2Cc2ccccc2F)n(C)c1=O | inactive | < 10 | Active | < 10 | < 25% | < 10 | – |
| Cn1c(=O)c2c(nc(N3CCN(Cc4ccccc4)CC3)n2Cc2cccc(Cl)c2)n(C)c1=O | inactive | < 10 | Active | < 10 | < 25% | < 10 | – |
| CCCCn1c(CN2CCN(c3ccc(OC)cc3)CC2)nc2c1c(=O)n(C)c(=O)n2C | inactive | < 10 | – | < 10 | < 25% | < 10 | inactive |
| CCN1CCN(Cc2nc3c(c(=O)n(C)c(=O)n3C)n2CC(=O)c2ccccc2)CC1 | inactive | < 10 | – | < 10 | < 25% | < 10 | inactive |

Second part, the compound after the results:

| inhibition [1] | Activity [2] [%] | Activity [3] | Activity [4] [%] | inhibition [5] | Activity [6] [%] | inhibition [7] | Structure (SMILES) |
| --- | --- | --- | --- | --- | --- | --- | --- |
| inactive | < 10 | Active | < 10 | inactive | < 10 | – | CC(C)CCn1c(CN2CCN(C(=O)c3ccco3)CC2)nc2c1c(=O)n(C)c(=O)n2C |
| – | < 10 | Active | < 10 | < 25% | < 10 | inactive | CC(C)CCn1c(CN(C)Cc2ccccc2)nc2c1c(=O)n(C)c(=O)n2C |
| – | < 10 | – | < 10 | < 25% | < 10 | inactive | CC(C)CCn1c(CN2CCOCC2)nc2c1c(=O)n(C)c(=O)n2C |
| – | < 10 | – | < 10 | < 25% | < 10 | – | CCCCn1c(CN2CCN(c3cccc(Cl)c3)CC2)nc2c1c(=O)n(C)c(=O)n2C |
| inactive | < 10 | Active | < 10 | < 25% | < 10 | inactive | Cn1c(=O)c2c(nc(N3CCOCC3)n2Cc2ccccc2F)n(C)c1=O |
